Experiments:
[1] = system: patients with positive baseline lactose tolerance tests; test: Standard lactose tolerance test, baseline vs post-treatment; type: in vivo, humans
Procedure: (§1) From May 1998 through April 2002, 41 patients (22 with clinical and 19 with both clinical and laboratory evidence of severe lactose intolerance) were treated with sublimed sulfur (USP) and a restricted lactose diet for a mean of 3.6 (standard deviation [SD] 3.4) weeks, followed by a regular diet and sublimed sulfur for a mean of 5.8 (SD 5.0) weeks. Quantitative comparisons were made between baseline and post-treatment symptoms in all patients and standard lactose tolerance test results in a subset of 19 patients with positive baseline lactose tolerance tests.

[2] = system: patients with clinical lactose intolerance; test: Treatment of lactose-intolerant patients with sublimed sulfur: clinical symptoms, baseline vs post-treatment; type: in vivo, humans
Procedure: as §1

[3] = limited course of treatment, conclusion

## [S] [sublimed sulfur]
[1]; 9 of 19 patients
  patients who converted from intolerant to tolerant test results: 47%
[1]; at 30 minutes, t=2.81, p=0.01
  serum glucose level versus baseline in the lactose tolerance test: increased significantly above baseline
[1]; at 60 minutes, t=2.58, p=0.02
  serum glucose level versus baseline in the lactose tolerance test: increased significantly above baseline
[1]; [3]
  lactase activity: significant increase
[2]; 13 of 17 patients whose symptoms redeveloped
  patients who remained asymptomatic after a second course of treatment: 76%
[2]; 17 of the subset of 19 patients with positive baseline lactose tolerance tests
  patients who became clinically asymptomatic after treatment: 89%
[2]; 20 of the remaining 39 patients
  patients who remained symptom-free after one course of treatment: 51%
[2]; 39 of 41 patients, sublimed sulfur with restricted lactose diet, then regular diet
  patients who became asymptomatic during treatment: 95%
[2]; after one course of treatment, confidence interval in brackets
  overall relapse rate: 0.46 (confidence interval 0.32-0.61)
[2]; human, in vivo
  median symptom-free period after discontinuation of sublimed sulfur: 76 weeks
[2]; [3]
  lactose tolerance: restored lactose tolerance for prolonged periods
